Assay results published in publication PMC9182199, “Borylated 2,3,4,5-Tetrachlorophthalimide and Their 2,3,4,5-Tetrachlorobenzamide Analogues: Synthesis, Their Glycosidase Inhibition and Anticancer Properties in View to Boron Neutron Capture Therapy” (Molecules, 2022).
Where two headings read alike, the source gives them in different places.

How the values were obtained:
[1] = tested on: Penicillium decumbens α-L-rhamnosidase; test: Glycosidase inhibition, laboratory 1: α-L-rhamnosidase; format: biochemical; conditions: methanol
Text: (§1) The enzymes α-glucosidase (from yeast), β-glucosidases (from almond and bovine liver), α-galactosidase (from coffee beans), β-galactosidase (from bovine liver), α-mannosidase (from Jack bean), β-mannosidase (from snail), α-L-rhamnosidase (from Penicillium decumbens), α-L-fucosidase (from bovine kidney), trehalase (from porcine kidney), β-glucuronidases (from E. coli and bovine liver), amyloglucosidase (from A. niger), para-nitrophenyl glycosides, and various disaccharides were purchased from Sigma-Aldrich Co (St Louis, MO, USA).
(§2) Brush border membranes were prepared from the rat small intestine according to the method of Kessler et al. and were assayed at pH 6.8 for rat intestinal maltase using maltose. For rat intestinal maltase, porcine kidney trehalase, and A. niger amyloglucosidase activities, the reaction mixture contained 25 mM maltose and the appropriate amount of enzyme, and the incubations were performed for 10–30 min at 37 °C. The reaction was stopped by heating at 100 °C for 3 min. After centrifugation (600× g; 10 min), the resulting reaction mixture was added to the Glucose CII-test Wako (Wako Pure Chemical Ind., Osaka, Japan). The absorbance at 505 nm was measured to determine the amount of the released D-glucose. Other glycosidase activities were determined using an appropriate para-nitrophenyl glycoside as substrate at the optimum pH of each enzyme. The reaction mixture contained 2 mM of the substrate and the appropriate amount of enzyme. The reaction was stopped by addition of 400 mM Na2CO3. The released para-nitrophenol was measured spectrometrically at 400 nm. All reactions run in methanol.

[2] = tested on: bovine liver β-glucuronidase; test: Glycosidase inhibition, laboratory 1: bovine liver β-glucuronidase; format: biochemical; conditions: methanol
Text: as §1, §2

[3] = target: T1, A. niger amyloglucosidase (Aspergillus niger, UniProt P69328); test: Glycosidase inhibition, laboratory 1: amyloglucosidase; format: biochemical; conditions: for inhibition at 10 µM: read-out: inhibition % at 10 μM; for inhibition at 100 µM: read-out: inhibition % at 100 μM
T1 construct: purchased Sigma-Aldrich Co
Text: as §1, §2

Jack bean α-mannosidase = target: T2, Jack bean α-mannosidase (Canavalia ensiformis, UniProt C0HJB3); test: Glycosidase inhibition, laboratory 2: Jack bean α-mannosidase; format: biochemical; conditions: for inhibition at 400 µM: read-out: % inhibition at ~400 μM, water; for % inhibition at ~400 μM: water
T2 construct: purchased Sigma-Aldrich Co
T2 sequence (C0HJB3 1-981): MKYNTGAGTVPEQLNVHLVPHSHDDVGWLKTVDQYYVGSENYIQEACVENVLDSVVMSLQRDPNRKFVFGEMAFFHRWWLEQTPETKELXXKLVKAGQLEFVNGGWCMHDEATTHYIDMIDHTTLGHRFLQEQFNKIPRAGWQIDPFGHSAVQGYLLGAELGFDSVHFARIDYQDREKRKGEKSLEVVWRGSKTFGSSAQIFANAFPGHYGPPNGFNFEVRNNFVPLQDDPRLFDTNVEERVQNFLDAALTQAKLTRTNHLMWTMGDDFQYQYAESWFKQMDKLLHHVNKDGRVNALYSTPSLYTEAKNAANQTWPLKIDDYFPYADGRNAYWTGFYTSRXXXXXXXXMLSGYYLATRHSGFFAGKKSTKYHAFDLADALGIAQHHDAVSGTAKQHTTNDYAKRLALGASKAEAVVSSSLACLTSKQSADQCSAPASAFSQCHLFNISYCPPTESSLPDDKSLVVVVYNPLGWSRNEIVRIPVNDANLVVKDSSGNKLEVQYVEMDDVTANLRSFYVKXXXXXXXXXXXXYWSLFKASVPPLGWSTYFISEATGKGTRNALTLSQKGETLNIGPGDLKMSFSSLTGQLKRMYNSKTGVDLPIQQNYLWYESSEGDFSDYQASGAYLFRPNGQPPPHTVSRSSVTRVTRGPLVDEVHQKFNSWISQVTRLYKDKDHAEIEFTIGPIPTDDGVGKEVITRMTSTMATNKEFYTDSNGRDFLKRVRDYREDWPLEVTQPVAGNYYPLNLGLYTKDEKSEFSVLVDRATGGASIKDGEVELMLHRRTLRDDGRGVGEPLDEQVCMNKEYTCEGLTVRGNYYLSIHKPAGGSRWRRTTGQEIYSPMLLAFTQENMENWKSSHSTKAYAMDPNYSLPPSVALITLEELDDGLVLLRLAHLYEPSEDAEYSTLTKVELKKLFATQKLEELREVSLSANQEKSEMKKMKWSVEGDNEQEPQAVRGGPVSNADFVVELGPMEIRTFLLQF
Procedure: All enzymes and para-nitrophenyl substrates were purchased from Sigma. Enzymes were assayed at 27 °C in 0.1 M citric acid/0.2 M disodium hydrogen phosphate buffers at the optimum pH for the enzyme. The incubation mixture consisted of 10 μL enzyme solution, 10 μL of 1 mg/mL aqueous solution of extract and 50 μL of the appropriate 5 mM para-nitrophenyl substrate made up in buffer at the optimum pH for the enzyme. The reactions were stopped by addition of 70 μL 0.4 M glycine (pH 10.4) during the exponential phase of the reaction, which had been determined at the beginning using uninhibited assays in which water replaced inhibitor. Final absorbances were read at 405 nm using a Versamax microplate reader (Molecular Devices). Assays were carried out in triplicate, and the values given are means of the three replicates per assay. All reactions run in water.

HT29 = test: MTT cell growth inhibition: HT29; format: cell-based; conditions: 72 h; for inhibition at 25 µM: Homo sapiens, HT-29, HT29 colon carcinoma, read-out: Percentage (%) Cell Growth Inhibition in response to 25 µM of Drug; for Percentage (%) Cell Growth Inhibition in response to 25 µM of Drug: HT29 colon carcinoma
Procedure: (§3) All test agents were prepared as stock solutions (20 mM) in dimethyl sulfoxide (DMSO) and stored at −20 °C. Cell lines used in the study included HT29 (colorectal carcinoma); U87, SJ-G2, (glioblastoma); MCF-7, (breast carcinoma); A2780 (ovarian carcinoma); H460 (lung carcinoma); A431 (skin carcinoma); Du145 (prostate carcinoma); BE2-C (neuroblastoma); MiaPaCa-2 (pancreatic carcinoma); and SMA560 (spontaneous murine astrocytoma), together with the one non-tumour-derived normal breast cell line (MCF10A). All cell lines were incubated in a humidified atmosphere 5% CO2 at 37 °C. The cancer cell lines were maintained in Dulbecco’s modified Eagle’s medium (DMEM; Sigma, Australia) supplemented with foetal bovine serum (10%), sodium pyruvate (10 mM), penicillin (100 IUmL^−1), streptomycin (100 µg mL^−1) and L-glutamine (2 mM).
(§4) Growth inhibition was determined by plating cells in duplicate in medium (100 µL) at a density of 2500–4000 cells per well in 96-well plates. On day 0 (24 h after plating), when the cells were in logarithmic growth, medium (100 µL) with or without the test agent was added to each well. After 72 h drug exposure, growth inhibitory effects were evaluated using the MTT (3-(4,5-dimethyltiazol-2-yl)-2,5-diphenyltetrazolium bromide) assay and absorbance read at 540 nm. The percentage growth inhibition was calculated at a fixed concentration of 25 µM, based on the difference between the optical density values on day 0 and those at the end of drug exposure. Each data point is the mean ± the standard error of the mean (SEM) calculated from three replicates which were performed on separate occasions and separate cell line passages.

H460 = test: MTT cell growth inhibition: H460; format: cell-based; conditions: H460 lung carcinoma; for GI50 / inhibition at 25 µM: Homo sapiens; for GI50: NCI-H460, read-out: GI50 = Concentration (µM) that inhibits cell growth by 50%, dose response; for inhibition at 25 µM: NCI-H460, read-out: Percentage (%) Cell Growth Inhibition in response to 25 µM of Drug; for inhibition at 25 µM / Percentage (%) Cell Growth Inhibition in response to 25 µM of Drug: 72 h, MTT
Procedure: as §3, §4

[4] = A. niger amyloglucosidase, 100 μM, methanol

T1 sequence (P69328 25-640): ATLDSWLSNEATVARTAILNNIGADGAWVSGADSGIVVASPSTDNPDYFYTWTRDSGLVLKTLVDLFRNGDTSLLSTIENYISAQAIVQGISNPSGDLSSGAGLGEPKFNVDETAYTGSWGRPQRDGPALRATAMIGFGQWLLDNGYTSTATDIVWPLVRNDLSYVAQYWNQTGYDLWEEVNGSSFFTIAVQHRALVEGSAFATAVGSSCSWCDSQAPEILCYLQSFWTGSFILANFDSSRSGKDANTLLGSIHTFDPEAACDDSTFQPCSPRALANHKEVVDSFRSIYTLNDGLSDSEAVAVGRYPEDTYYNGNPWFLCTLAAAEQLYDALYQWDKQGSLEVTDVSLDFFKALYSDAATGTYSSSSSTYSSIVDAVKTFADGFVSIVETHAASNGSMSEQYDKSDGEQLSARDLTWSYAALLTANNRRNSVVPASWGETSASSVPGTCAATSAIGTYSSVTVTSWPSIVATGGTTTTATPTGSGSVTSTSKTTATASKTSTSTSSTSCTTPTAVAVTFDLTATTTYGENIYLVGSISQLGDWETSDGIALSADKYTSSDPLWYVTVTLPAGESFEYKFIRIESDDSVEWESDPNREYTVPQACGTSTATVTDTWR

Row | Compound | inhibition at 400 µM (Jack bean α-mannosidase) [%] | inhibition at 25 µM (HT29) [%] | GI50 (H460) [µM] | inhibition at 25 µM (H460) [%] | inhibition % at 100 μM [1] | inhibition % at 100 μM [2] | other results
1 | CC1(C)OB(c2ccccc2NC(=O)c2cc(Cl)c(Cl)c(Cl)c2Cl)OC1(C)C [ortho 5, 2,3,4,5-Tetrachloro-N-(2-(4,4,5,5-tetramethyl-1,3,2-dioxaborolan-2-yl)phenyl)benzamide] | 0 | 98 ± 2 | 13 ± 1 | > 100 | – | – | inhibition % at 10 μM [1]: ^cNI ^d (0%); inhibition % at 10 μM [2]: ^cNI ^d (0%); inhibition at 10 µM ([3]; A. niger amyloglucosidase, 10 μM, methanol): 0%
2 | CC1(C)OB(c2cccc(NC(=O)c3cc(Cl)c(Cl)c(Cl)c3Cl)c2)OC1(C)C [meta 5, 2,3,4,5-tetrachloro-N-(3-(4,4,5,5-tetramethyl-1,3,2-dioxaborolan-2-yl)phenyl)benzamide] | 2.2 | 10 ± 7 | – | 18 ± 6 | ^aNI ^b (2.2%) | ^aNI ^b (6.0%) | inhibition at 100 µM [3, 4]: 2.8%
3 | CC1(C)OB(c2ccc(NC(=O)c3cc(Cl)c(Cl)c(Cl)c3Cl)cc2)OC1(C)C [para 5, 2,3,4,5-tetrachloro-N-(4-(4,4,5,5-tetramethyl-1,3,2-dioxaborolan-2-yl)phenyl)benzamide] | -8.2 | 69 ± 7 | – | 54 ± 2 | ^aNI ^b (14.4%) | ^aNI ^b (36.5%) | inhibition at 100 µM [3, 4]: 0%
4 | N[C@@H](Cc1ccc(B(O)O)cc1)C(=O)O [BPA, 4-borono-L-phenylalanine, reference compound] | 0.6 | 14 | – | 7 ± 8 | ^cNI ^d (0%) | ^cNI ^d (7.4%) | –
5 | CC1(C)OB(c2ccc(CN3C(=O)c4c(Cl)c(Cl)c(Cl)c(Cl)c4C3=O)cc2)OC1(C)C [para 3, 4,5,6,7-Tetrachloro-2-(4-(4,4,5,5-tetramethyl-1,3,2-dioxaborolan-2-yl)benzyl)isoindoline-1,3-dione] | 16.5 | 99 ± 2 | 13 ± 0.33 | 100 ± 2 | ^aNI ^b (0%) | ^aNI ^b (1.0%) | inhibition at 100 µM [3]: 1%
6 | CC1(C)OB(c2ccccc2CNC(=O)c2cc(Cl)c(Cl)c(Cl)c2Cl)OC1(C)C [ortho 8, 2,3,4,5-tetrachloro-N-(2-(4,4,5,5-tetramethyl-1,3,2-dioxaborolan-2-yl)benzyl)benzamide] | -6.1 | 5 ± 10 | – | 0 | ^aNI ^b (6.2%) | ^aNI ^b (16.3%) | inhibition at 100 µM [3]: 0%
7 | Borocaptate sodium [BSH, reference compound] | – | – | – | – | – | – | inhibition % at 1000 μM ([1]; 1000 μM): ^aNI ^b (0.2%); inhibition % at 1000 μM ([2]; 1000 μM): ^aNI ^b (19.6%); inhibition % at 1000 μM ([3]; A. niger amyloglucosidase, 1000 μM, methanol): ^aNI ^b (0%); % inhibition at ~400 μM (Jack bean α-mannosidase): −18.7%; Percentage (%) Cell Growth Inhibition in response to 25 µM of Drug (HT29): 3 ± 2%; Percentage (%) Cell Growth Inhibition in response to 25 µM of Drug (H460): 8 ± 2%
8 | CC1(C)OB(c2cccc(CN3C(=O)c4c(Cl)c(Cl)c(Cl)c(Cl)c4C3=O)c2)OC1(C)C [meta 3, 4,5,6,7-Tetrachloro-2-(3-(4,4,5,5-tetramethyl-1,3,2-dioxaborolan-2-yl)benzyl)isoindoline-1,3-dione] | 30.3 | 53 ± 3 | 33 ± 2.3 | 42 ± 6 | – | – | inhibition % at 10 μM [1]: ^cNI ^d (0%); inhibition % at 10 μM [2]: ^cNI ^d (5.7%); inhibition at 10 µM [3]: 3.2%
9 | N[C@@H](Cc1ccc(B(O)O)cc1)C(=O)O [^10B-BPA, reference compound] | – | – | – | – | ^cNI ^d (0%) | ^cNI ^d (0%) | inhibition % at 100 μM [3, 4]: ^cNI ^d (0%); % inhibition at ~400 μM (Jack bean α-mannosidase): −0.7%; Percentage (%) Cell Growth Inhibition in response to 25 µM of Drug (HT29): 15 ± 4%; Percentage (%) Cell Growth Inhibition in response to 25 µM of Drug (H460): 8 ± 5%
